Reference: ChEMBL document CHEMBL3632556, “Synthesis and biological evaluation of new C-10 substituted dithranol pleiotropic hybrids” (Bioorg Med Chem, 2015)

How the values were obtained:
[1] = Antioxidant activity assessed as DPPH free radical scavenging activity by measuring reducing activity at 100 uM after 20 mins by spectrophotometry; format: physicochemical; set-up: scale not given: the % may be the effect or the level left
[2] = Antioxidant activity assessed as increase of DPPH free radical scavenging activity by measuring reducing activity at 100 uM after 60 mins by spectrophotometry; format: physicochemical; conditions: 1 h
Rattus norvegicus [3] = assay: Acute toxicity in Fisher 344 rat up to 0.1 mmol/kg, ip; format: organism-based; conditions: in vivo
Glycine max = assay: Inhibition of soybean LOX assessed as reduction in conversion of sodium linoleate to 13-hydroperoxylinoleic acid at 100 uM by UV analysis
[4] = Antioxidant activity assessed as inhibition of AAPH-induced linoleic acid lipid peroxidation at 100 uM; format: physicochemical
[5] = Cytotoxicity against human HaCaT cells assessed as cell survival at 10 uM after 48 hrs by MTT assay (reference value: 95.75 +/- 2.47%); format: cell-based; conditions: read-out: Survival
[6] = Cytotoxicity against human HaCaT cells assessed as cell survival at 1 uM after 48 hrs by MTT assay (reference value: 97.50 +/- 0.71%); format: cell-based; conditions: read-out: Survival
HaCaT [7] = assay: Antiproliferative activity against human HaCaT cells after 24 hrs by MTT assay; format: functional, cell-based
[8] = Cytotoxicity against human HaCaT cells assessed as cell survival at 0.01 uM after 48 hrs by MTT assay (reference value: 100%); format: cell-based; conditions: read-out: Survival
[9] = Cytotoxicity against human HaCaT cells assessed as cell survival at 0.1 uM after 48 hrs by MTT assay (reference value: 96.75 +/- 1.77%); format: cell-based; conditions: read-out: Survival
Rattus norvegicus [10] = assay: Anti-inflammatory activity in Fisher 344 rat assessed as inhibition of carrageenan-induced paw edema at 0.01 mmol/kg, ip after 3.5 hrs; format: functional; conditions: Fisher 344, ip
[11] = Cytotoxicity against human HaCaT cells assessed as cell survival at 100 uM after 48 hrs by MTT assay (reference value: 88.07 +/- 9.81%); format: cell-based; conditions: read-out: Survival
[12] = Inhibition of soybean LOX assessed as reduction in conversion of sodium linoleate to 13-hydroperoxylinoleic acid by UV analysis; set-up: species or system Glycine max
[13] = Lipophilicity, RM of the compound by RP-TLC method; format: physicochemical
[14] = Drug metabolism in DMSO assessed as formation of oxidative product danthron at 1 mM after 2 days by HPLC analysis; format: physicochemical; conditions: 48 h, 1000 µM
[15] = Chemical stability in DMSO assessed as compound degradation at 1 mM after 5 days by HPLC analysis; format: physicochemical; conditions: 120 h, 1000 µM
HaCaT [16] = assay: Antiproliferative activity against human HaCaT cells; format: functional, cell-based
[17] = Drug degradation in DMSO up to 48 hrs; format: physicochemical

Stability [17] | SMILES | Activity [1] | Activity [2] | Activity (Rattus norvegicus [3]) | inhibition (Glycine max) [%] | inhibition (INH) [4] | viability at 48 h, 10 µM [5] [%] | viability at 48 h, 1 µM [6] [%] | IC50 (HaCaT [7]) [µM] | viability at 48 h, 0.01 µM [8] [%] | viability at 48 h, 0.1 µM [9] [%] | inhibition in vivo at 10 µmol/kg (Rattus norvegicus [10]) [%] | viability at 48 h, 100 µM [11] [%] | IC50 ([12]; read-out: IC50) [µM] | IC50 [12] | Rm [13] | Stability [14] | Stability [15] | IC50 (HaCaT [16]) [µM]
– | NCCCCN(CCCN)C(=O)CC1c2cccc(O)c2C(=O)c2c(O)cccc21.O=C(O)C(F)(F)F.O=C(O)C(F)(F)F | 48% | Not Active | Non-toxic | 26 | 74% | – | – | – | – | – | – | – | – | – | – | – | – | –
– | O=C(O)CC1c2cccc(O)c2C(=O)c2c(O)cccc21 | 25% | Active | Non-toxic | – | 20% | 42 | 60.4 | 1.9 | 87.1 | 58 | 13 | 41.2 | 50 | – | – | – | – | –
– | COc1ccc(CNC(=O)CC2c3cccc(O)c3C(=O)c3c(O)cccc32)c(OC)c1 | 87% | Not Active | Non-toxic | – | 81% | 8.42 | 135 | 10 | 92.3 | 134 | – | 0.05 | 50 | – | – | – | – | –
– | COc1ccc(C(NC(C)=O)c2ccc(OC)cc2)cc1 | Not Active | Not Active | Non-toxic | – | 94% | – | – | – | – | – | 45 | – | 100 | – | – | – | – | –
– | NCCCCNCCCN [SPERMIDINE] | Not Active | Not Active | – | – | Not Active | – | – | – | – | – | – | – | – | Not Active | – | – | – | –
– | NCCCCNC(=O)CC1c2cccc(O)c2C(=O)c2c(O)cccc21.O=C(O)C(F)(F)F | 65% | Not Active | Non-toxic | 35 | 91% | – | – | – | – | – | – | – | – | – | 0.63 | – | – | –
– | O=C(CC1c2cccc(O)c2C(=O)c2c(O)cccc21)NCCc1ccc(O)c(O)c1 | 32% | Not Active | Non-toxic | 42 | 5% | 128 | 112 | 100 | 91.1 | 114 | – | 2.98 | – | – | – | – | – | –
– | COc1ccc2c(c1)c(CC(=O)O)c(C)n2C(=O)c1ccc(Cl)cc1 [INDOMETHACIN] | – | – | – | – | – | – | – | – | – | – | 47 | – | – | – | – | – | – | –
– | CC(C)(C)OC(=O)NCCCN(CCCCN(CCCNC(=O)CC1c2cccc(O)c2C(=O)c2c(O)cccc21)C(=O)OC(C)(C)C)C(=O)OC(C)(C)C | 29% | Not Active | Non-toxic | – | 93% | – | – | – | – | – | – | – | – | Not Active | – | – | – | –
– | CCOC(=O)CC1c2cccc(O)c2C(=O)c2c(O)cccc21 | 31% | Active | Non-toxic | – | 14% | 28.8 | 49.9 | 0.357 | 47 | 53.4 | – | 6.5 | 44.5 | – | 0.63 | – | – | –
– | NCCc1ccc(O)c(O)c1 [DOPAMINE] | 86% | Not Active | – | – | 43% | – | – | – | – | – | 13 | – | 100 | – | – | – | – | –
– | NCCCNCCCCNCCCN [SPERMINE] | 4% | Not Active | – | – | Not Active | – | – | – | – | – | – | – | – | Not Active | – | – | – | –
– | COc1ccc(C(NC(=O)CC2c3cccc(O)c3C(=O)c3c(O)cccc32)c2ccc(OC)cc2)cc1 | 86% | Active | Non-toxic | – | 95% | 20.3 | 38 | 0.56 | 79.8 | 44 | 79.7 | 9.65 | 7 | – | 0.66 | Stable | Stable | –
– | CCCCNC(=O)CC1c2cccc(O)c2C(=O)c2c(O)cccc21 | 31% | Active | Non-toxic | – | 59% | 24.4 | 80.9 | 5.4 | 87.2 | 83.7 | 35 | 13.7 | 10 | – | 0.05 | – | – | –
– | O=C1c2c(O)cccc2Cc2cccc(O)c21 [ANTHRALIN] | 31% | Active | Non-toxic | – | 28% | 5.23 | 48.1 | 0.945 | 94.5 | 87.8 | 42 | 1.7 | – | Not Active | 0.7 | – | – | 0.7
– | NCCCNCCCCNCCCNC(=O)CC1c2cccc(O)c2C(=O)c2c(O)cccc21.O=C(O)C(F)(F)F.O=C(O)C(F)(F)F.O=C(O)C(F)(F)F | 93% | Not Active | Non-toxic | – | 87% | – | – | – | – | – | – | – | – | Not Active | – | – | – | –
– | O=C(CC1c2cccc(O)c2C(=O)c2c(O)cccc21)NCc1ccccc1 | 20% | Active | Non-toxic | – | 66% | – | – | – | – | – | 35 | – | 7.9 | – | 0.66 | – | – | –
Unstable | O=C1c2cccc(Cl)c2Cc2c(Cl)cccc21 | – | – | – | – | – | – | – | – | – | – | – | – | – | – | – | – | – | –
– | COc1ccc(CNC(=O)CC2c3cccc(O)c3C(=O)c3c(O)cccc32)cc1OC | 61% | Not Active | Non-toxic | – | 65% | 3 | 12.3 | – | 18.5 | 13.3 | – | 0 | 61.5 | – | – | – | – | –
– | CC(C)(C)OC(=O)NCCCCNC(=O)CC1c2cccc(O)c2C(=O)c2c(O)cccc21 | 33% | Not Active | Non-toxic | 46 | 62% | – | – | – | – | – | – | – | – | – | – | – | – | –
– | CC(C)(C)OC(=O)CC1c2cccc(O)c2C(=O)c2c(O)cccc21 | 9% | Active | Non-toxic | – | 79% | – | – | – | – | – | – | – | – | Not Active | – | – | – | –
– | Cc1c(C)c2c(c(C)c1O)CCC(C)(C(=O)O)O2 (stereo unspecified) [TROLOX] | – | – | – | – | 63% | – | – | – | – | – | – | – | – | – | – | – | – | –
– | CC(Cc1ccc(O)c(O)c1)C(C)Cc1ccc(O)c(O)c1 (stereo unspecified) [NORDIHYDROGUAIARETIC ACID] | 81% | Not Active | – | – | – | – | – | – | – | – | – | – | – | – | – | – | – | –
– | CCCCCCCCCCCCNC(=O)CC1c2cccc(O)c2C(=O)c2c(O)cccc21 | 98% | Not Active | Non-toxic | 32 | 74% | 7.79 | 14.6 | 0.022 | 55.9 | 37.7 | – | 1.22 | – | – | – | – | – | –
